Results as given in US20230130109A1, “MACROCYCLIC INDOLE DERIVATIVES AS INHIBITORS OF MCL-1” (priority 2020, published 2023).
Read-outs that look alike come from different tables or passages of the source.

Legend:
[1] = target: T1, Myeloid Cell Leukemia 1 (Mcl-1) (Homo sapiens, UniProt Q07820); test: biochemical; assay type: binding
T1 construct: Terbium (Tb) label; means of attachment not described

[2] = tested on: MOLP-8 human multiple myeloma cell line; test: Caspase-Glo 3/7 apoptosis induction assay in MOLP-8 cells; assay type: cell-based; conditions: averaged over all runs on all batches
Excerpt: MCL-1 is a regulator of apoptosis and is highly over-expressed in tumor cells that escape cell death. The assay evaluates the cellular potency of small-molecule compounds targeting regulators of the apoptosis pathway, primarily MCL-1, Bfl-1, Bcl-2, and other proteins of the Bcl-2 family. Protein-protein inhibitors disrupting the interaction of anti-apoptotic regulators with BH3-domain proteins initiate apoptosis.
The Caspase-Glo® 3/7 Assay is a luminescent assay that measures caspase-3 and −7 activities in purified enzyme preparations or cultures of adherent or suspension cells. The assay provides a proluminescent caspase-3/7 substrate, which contains the tetrapeptide sequence DEVD. This substrate is cleaved to release aminoluciferin, a substrate of luciferase used in the production of light. Addition of the single Caspase-Glo® 3/7 Reagent in an “add-mix-measure” format results in cell lysis, followed by caspase cleavage of the substrate and generation of a “glow-type” luminescent signal.
This assay uses the MOLP-8 human multiple myeloma cell line, which is sensitive to MCL-1 inhibition.
Cell cultures were maintained between 0.2 and 2.0×10^6 cells/mL. The cells were harvested by collection in 50 mL conical tubes. The cells were then pelleted at 500 g for 5 mins before removing supernatant and resuspension in fresh pre-warmed culture medium. The cells were counted and diluted as needed.
The assay reagent was prepared by transferring the buffer solution to the substrate vial and mixing. The solution may be stored for up to 1 week at 4° C. with negligible loss of signal.
Compounds were delivered in assay-ready plates (Proxiplate) and stored at −20° C.
Assays always include 1 reference compound plate containing reference compounds. The plates were spotted with 40 nL of compounds (0.5% DMSO final in cells; serial dilution; […] highest conc. 1/3 dilution, 10 doses, duplicates). The compounds were used at room temperature and 4 μL of pre-warmed media was added to all wells except column 2 and 23. The negative control was prepared by adding 1% DMSO in media. The positive control was prepared by adding the appropriate positive control compound in final concentration of […] in media. The plate was prepared by adding 4 μL negative control to column 23, 4 μL positive control to column 2 and 4 μL cell suspension to all wells in the plate. The plate with cells was then incubated at 37° C. for 2 hours. The assay signal reagent is the Caspase-Glo solution described above, and 8 μL was added to all wells. The plates were then sealed and measured after 30 minutes.
The activity of a test compound was calculated as percent change in apoptosis induction as follows: […]

[3] = Homo sapiens, MOLP-8, 2 h, read-out: MOLP8 Caspase-Glo AC50 (nM) LD value, MOLP-8 cells, 2 hours at 37° C., caspase-3/7 luminescence
[4] = read-out: MOLP8 Caspase-Glo AC50 (nM) LD value, MOLP-8 cells, 2 hours at 37° C., caspase-3/7 luminescence

T1 sequence (Q07820 whole entry): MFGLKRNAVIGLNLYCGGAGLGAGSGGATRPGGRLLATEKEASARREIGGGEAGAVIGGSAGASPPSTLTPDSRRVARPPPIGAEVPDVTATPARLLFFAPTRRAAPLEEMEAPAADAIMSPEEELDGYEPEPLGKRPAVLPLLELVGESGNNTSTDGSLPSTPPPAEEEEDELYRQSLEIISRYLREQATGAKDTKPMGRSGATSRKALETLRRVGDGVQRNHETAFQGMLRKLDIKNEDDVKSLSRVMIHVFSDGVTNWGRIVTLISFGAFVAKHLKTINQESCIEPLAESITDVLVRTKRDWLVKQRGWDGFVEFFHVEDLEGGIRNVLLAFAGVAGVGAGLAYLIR

`COCCOCCn1nc(C)c2c1C[S+]([O-])Cc1cc(n(C)n1)CCc1cc(c3ccc(F)cc3c1)OCCCn1c(C(=O)O)c(C)c3c-2c(Cl)ccc31` (single isomer, unassigned) [Compound 49] gave a Ki ([1]; TB-MCL1 Ki (nM)) of 0.01 nM and an AC50 [2, 3] of 141 nM.
`COCCOCCn1nc(C)c2c1C[S+]([O-])Cc1cc(n(C)n1)CCc1cc(c3ccc(F)cc3c1)OCCCn1c(C(=O)O)c(C)c3c-2c(Cl)ccc31` (single isomer, unassigned) [Compound 50] was tested, and the Ki ([1]; TB-MCL1 Ki (nM)) was 0.013 nM and the AC50 [2, 4] was 83.6 nM.
`COCCOCCn1nc2c(c1C)-c1c(Cl)ccc3c1c(C)c(C(=O)O)n3CCCOc1cc(cc3c(F)c(F)ccc13)CCc1cc(nn1C)CSC2` (single isomer, unassigned) [Compound 63] was tested, and the Ki ([1]; TB-MCL1 Ki (nM)) was 0.026 nM and the AC50 [2, 4] was 22 nM.
Compound `COCCOCCn1nc(C)c2c1CSCc1cc(n(C)n1)CCc1cc(c3ccc(F)c(F)c3c1)OCCCn1c(C(=O)O)c(C)c3c-2c(Cl)ccc31` (single isomer, unassigned) [Compound 64] has a Ki ([1]; TB-MCL1 Ki (nM)) of 2.33 nM and an AC50 [2, 3] of 2100 nM.
In the case of `COCCOCCn1nc2c(c1C)-c1c(Cl)ccc3c1c(C)c(C(=O)O)n3CCCOc1cc(cc3c(F)c(F)ccc13)CCc1cc(nn1C)CSC2` (single isomer, unassigned) [Compound 65], the Ki ([1]; TB-MCL1 Ki (nM)) is reported as 2.98 nM and the AC50 [2, 4] is reported as 1600 nM.
Compound `COCCOCCn1nc(C)c2c1CS(=O)(=O)Cc1cc(n(C)n1)CCc1cc(c3ccc(F)cc3c1)OCCCn1c(C(=O)O)c(C)c3c-2c(Cl)ccc31` (single isomer, unassigned) [Compound 67] has a Ki ([1]; TB-MCL1 Ki (nM)) of 0.017 nM and an AC50 [2, 3] of 104 nM.
Compound `CNCCn1nc2c(c1C)-c1c(Cl)ccc3c1c(C)c(C(=O)O)n3CCCOc1cc(cc3cc(F)ccc13)CCc1cc(nn1C)CSC2` (single isomer, unassigned) [Compound 68] has a Ki ([1]; TB-MCL1 Ki (nM)) of 0.008 nM and an AC50 [2, 3] of 440 nM.
For `CNCCn1nc(C)c2c1CSCc1cc(n(C)n1)CCc1cc(c3ccc(F)cc3c1)OCCCn1c(C(=O)O)c(C)c3c-2c(Cl)ccc31` (single isomer, unassigned) [Compound 69], the Ki ([1]; TB-MCL1 Ki (nM)) was 0.014 nM and the AC50 [2, 3] was 402 nM.
`Cc1c(C(=O)O)n2c3ccc(Cl)c(c13)-c1c(nn(C)c1C)CSCc1cc(n(C)n1)CCc1cc(c3ccccc3c1)OCCC2` [Compound 2] was tested, and the Ki ([1]; TB-MCL1 Ki (nM)) was 0.483 nM and the AC50 [2, 3] was 1260 nM.
Work on `Cc1c(C(=O)O)n2c3ccc(Cl)c(c13)-c1c(nn(C)c1C)CSCc1cc(n(C)n1)CCc1cc(c3c(F)cccc3c1)OCCC2` [Compound 5] yielded a Ki ([1]; TB-MCL1 Ki (nM)) of 0.411 nM and an AC50 [2, 3] of 1290 nM.
`Cc1c(C(=O)O)n2c3ccc(Cl)c(c13)-c1c(nn(C)c1C)CS(=O)(=O)Cc1cc(n(C)n1)CCc1cc(c3ccccc3c1)OCCC2` [Compound 6] was tested, and the Ki ([1]; TB-MCL1 Ki (nM)) was 0.059 nM and the AC50 [2, 4] was 931 nM.
Compound `Cc1c(C(=O)O)n2c3ccc(Cl)c(c13)-c1c(nn(C)c1C)CS(=O)(=O)Cc1cc(n(C)n1)CCc1cc(c3ccccc3c1)OCCC2` [Compound 7] has a Ki ([1]; TB-MCL1 Ki (nM)) of 1.71 nM and an AC50 [2, 4] of 11900 nM.
`Cc1c(C(=O)O)n2c3ccc(Cl)c(c13)-c1c(nn(C)c1C)CN(C)Cc1cc(n(C)n1)CCc1cc(c3ccc(F)cc3c1)OCCC2` [Compound 8] was tested, and the AC50 [2, 4] was 68.8 nM.
Work on `Cc1c(C(=O)O)n2c3ccc(Cl)c(c13)-c1c(nn(C)c1C)CN(C)Cc1cc(n(C)n1)CCc1cc(c3ccc(F)cc3c1)OCCC2` [Compound 9] yielded an AC50 [2, 4] of 1170 nM.
`COCCOCCOCCn1nc(C)c2c1CSCc1cc(n(C)n1)CCc1cc(c3ccc(F)cc3c1)OCCCn1c(C(=O)O)c(C)c3c-2c(Cl)ccc31` [Compound 16] gave a Ki ([1]; TB-MCL1 Ki (nM)) of 0.024 nM and an AC50 [2, 3] of 19.7 nM.
`COCCOCCOCCn1nc2c(c1C)-c1c(Cl)ccc3c1c(C)c(C(=O)O)n3CCCOc1cc(cc3cc(F)ccc13)CCc1cc(nn1C)CSC2` [Compound 17] showed a Ki ([1]; TB-MCL1 Ki (nM)) of 0.018 nM and an AC50 [2, 3] of 46.8 nM.
Compound `COCCn1nc(C)c2c1CSCc1cc(n(C)n1)CCc1cc(c3ccc(F)cc3c1)OCCCn1c(C(=O)O)c(C)c3c-2c(Cl)ccc31` [Compound 18] has a Ki ([1]; TB-MCL1 Ki (nM)) of 0.025 nM and an AC50 [2, 3] of 17 nM.
`COCCn1nc2c(c1C)-c1c(Cl)ccc3c1c(C)c(C(=O)O)n3CCCOc1cc(cc3cc(F)ccc13)CCc1cc(nn1C)CSC2` [Compound 19] was tested, and the Ki ([1]; TB-MCL1 Ki (nM)) was 0.035 nM and the AC50 [2, 3] was 20.7 nM.
`COCC(COC)n1nc(C)c2c1CSCc1cc(n(C)n1)CCc1cc(c3ccc(F)cc3c1)OCCCn1c(C(=O)O)c(C)c3c-2c(Cl)ccc31` [Compound 20] gave a Ki ([1]; TB-MCL1 Ki (nM)) of 0.026 nM and an AC50 [2, 3] of 8.8 nM.
In the case of `COCC(COC)n1nc2c(c1C)-c1c(Cl)ccc3c1c(C)c(C(=O)O)n3CCCOc1cc(cc3cc(F)ccc13)CCc1cc(nn1C)CSC2` [Compound 21], the Ki ([1]; TB-MCL1 Ki (nM)) is reported as 0.066 nM and the AC50 [2, 3] is reported as 49.5 nM.
`Cc1nn(CCC2CCOCC2)c2c1-c1c(Cl)ccc3c1c(C)c(C(=O)O)n3CCCOc1cc(cc3cc(F)ccc13)CCc1cc(nn1C)CSC2` [Compound 22] showed a Ki ([1]; TB-MCL1 Ki (nM)) of 0.029 nM and an AC50 [2, 3] of 20.1 nM.
`Cc1c(C(=O)O)n2c3ccc(Cl)c(c13)-c1c(nn(CCC3CCOCC3)c1C)CSCc1cc(n(C)n1)CCc1cc(c3ccc(F)cc3c1)OCCC2` [Compound 23] was tested, and the Ki ([1]; TB-MCL1 Ki (nM)) was 0.016 nM and the AC50 [2, 3] was 30.6 nM.
For `Cc1nn(C)c2c1-c1c(Cl)ccc3c1c(C)c(C(=O)O)n3CCCOc1cc(cc3cc(F)ccc13)CCc1cc(nn1C)CSC2` [Compound 28], the Ki ([1]; TB-MCL1 Ki (nM)) was 0.028 nM and the AC50 [2, 3] was 16.7 nM.
Work on `COCCOCCn1nc(C)c2c1CSCc1cc(n(C)n1)CCc1cc(c3ccc(F)cc3c1)OCCCn1c(C(=O)O)c(C)c3c-2c(Cl)ccc31` [Compound 31] yielded a Ki ([1]; read-out: TB-MCL1 Ki) of 0.015 nM.
In the case of `Cc1nn(CCCN)c2c1-c1c(Cl)ccc3c1c(C)c(C(=O)O)n3CCCOc1cc(cc3cc(F)ccc13)CCc1cc(nn1C)CSC2` [Compound 38], the Ki ([1]; TB-MCL1 Ki (nM)) is reported as 0.019 nM and the AC50 [2, 3] is reported as 540 nM.
With `COCCn1nc(C)c2c1CSCc1cc(n(C)n1)CCc1cc(c3ccc(Cl)cc3c1)OCCCn1c(C(=O)O)c(C)c3c-2c(Cl)ccc31` [Compound 41] the AC50 [2, 4] was 568 nM.
Compound `COCCn1nc(C)c2c1CSCc1cc(n(C)n1)CCc1cc(c3ccc(Cl)cc3c1)OCCCn1c(C(=O)O)c(C)c3c-2c(Cl)ccc31` [Compound 47] has an AC50 [2, 4] of 2710 nM.
`Cc1nn(CCOCCO)c2c1-c1c(Cl)ccc3c1c(C)c(C(=O)O)n3CCCOc1cc(cc3cc(F)ccc13)CCc1cc(nn1C)CSC2` [Compound 51] gave a Ki ([1]; TB-MCL1 Ki (nM)) of 0.013 nM and an AC50 [2, 3] of 87.3 nM.
`Cc1nn(CCO)c2c1-c1c(Cl)ccc3c1c(C)c(C(=O)O)n3CCCOc1cc(cc3cc(F)ccc13)CCc1cc(nn1C)CSC2` [Compound 52] was tested, and the AC50 [2, 4] was 39.4 nM.
`Cc1nn(CCO)c2c1-c1c(Cl)ccc3c1c(C)c(C(=O)O)n3CCCOc1cc(cc3cc(F)ccc13)CCc1cc(nn1C)CSC2` [Compound 53] showed an AC50 [2, 4] of 1250 nM.
For `COCCOCCn1nc(C)c2c1CSCc1cc(n(C)n1)CCc1cc(c3ccc(F)c(F)c3c1)OCCCn1c(C(=O)O)c(C)c3c-2c(Cl)ccc31` [Compound 62], the Ki ([1]; TB-MCL1 Ki (nM)) was 0.027 nM and the AC50 [2, 3] was 11.3 nM.
